Data: patent US20230131376A1, “ADJUVANT-ANTIBIOTIC COMBINATION AGAINST GRAM-NEGATIVE BACTERIA” (University of Notre Dame du Lac, priority 2020, published 2023)

Key:
[1] = test system: E. coli YD626 (parent); test: Colistin potentiation, broth microdilution, E. coli YD626 parent; format: cell-based
From the text: (§1) Broth microdilution method for antibiotic potentiation.

[2] = test system: K. pneumoniae B9; test: Colistin potentiation, chromosomally colistin resistant K. pneumoniae B9; format: cell-based; settings: no adjuvant; K. pneumoniae B9
From the text: as §1

[3] = test system: K. pneumoniae 2210291 (parent); test: Colistin potentiation, broth microdilution, K. pneumoniae 2210291 parent; format: cell-based; settings: no adjuvant
From the text: as §1

[4] = test system: K. pneumoniae 2210291 +mcr-1; test: Colistin potentiation, broth microdilution, K. pneumoniae 2210291 +mcr-1; settings: no adjuvant
[5] = test system: K. pneumoniae C3; test: Colistin potentiation, chromosomally colistin resistant K. pneumoniae C3; format: cell-based; settings: no adjuvant
From the text: as §1

[6] = test system: A. baumannii 17978 (parent); test: Colistin potentiation, broth microdilution, A. baumannii 17978 parent; format: cell-based; settings: no adjuvant
From the text: as §1

[7] = test system: E. coli YD626 +mcr-1; test: Colistin potentiation, broth microdilution, E. coli YD626 +mcr-1; settings: no adjuvant
[8] = test system: A. baumannii 3941; test: Colistin potentiation, chromosomally colistin resistant A. baumannii 3941; format: cell-based; settings: no adjuvant
From the text: as §1

[9] = test system: A. baumannii 4106 infection in G. mellonella larvae; test: Galleria mellonella model of A. baumannii infection; format: in vivo; settings: 50 mg/kg; 6×10^5 CFU A. baumannii 4106; day 4
Description: Galleria mellonella Assay. G. mellonella larvae (Speedy Worm, Alexandria, Minn.) were used within 10 days of shipment from the vendor. After reception of worms, larvae were kept in the dark at room temperature for at least 24 h. before infection. Larvae weighing between 200 to 300 mg were used in the survival assay. Using a 10 μL glass syringe (Hamilton, Reno, Nev.) fitted with a 30 G needle (Exel International, St. Petersburg, Fla.), a 5 μL solution of the desired compound(s) and concentration(s) were injected into the last left proleg. Colistin was dosed at 50 mg/kg dissolved in DI water, 2-AIs at 50 mg/kg dissolved in DMSO, tigecycline at 100 mg/kg dissolved in DMSO, and DMSO was injected for a negative control. For bacterial injections, 1 mL from an overnight culture of A. baumannii 4106 in Miller LB broth (Fisher Scientific U.S.) was subcultured into 9 mL Miller LB broth and incubated for an additional 3 h before use. The 10 mL solution was centrifuged and washed three times with phosphate buffer solution (PBS, Fisher Scientific U.S.) before diluting to 6×10^5 CFUs in PBS. Then, 2.5 h. after the first injection, a second 5 μL injection containing 6×10^5 CFUs of A. baumannii 4106 was injected into the second to last left proleg. Injected worms were left at room temperature in the dark while being assessed at 24 h intervals over 4 days. […] Experiment was repeated 3 times using 10 larvae per experimental group. No ethics approval was needed for G. mellonella.

[10] = test system: A. baumannii 4106; test: Colistin potentiation, chromosomally colistin resistant A. baumannii 4106; format: cell-based; settings: no adjuvant
From the text: as §1

[11] = test system: A. baumannii 17978 +mcr-1; test: Colistin potentiation, broth microdilution, A. baumannii 17978 +mcr-1; settings: no adjuvant
[12] = test system: Francisella philomiragia; settings: tested at 50 μM; cited from earlier work
[13] = test system: F. novicida; settings: tested at 50 μM; cited from earlier work

## colistin [reference compound]
[1]; no adjuvant, E. coli YD626 parent
  colistin MIC, colistin alone: 1 µg/mL
[2]
  colistin MIC, colistin alone: 512 µg/mL
[3]
  colistin MIC, colistin alone: 1 µg/mL
[4]
  colistin MIC, colistin alone: 16 µg/mL
[5]
  colistin MIC, colistin alone: 512 µg/mL
[6]
  colistin MIC, colistin alone: 2 µg/mL
[7]
  colistin MIC, colistin alone: 8 µg/mL
[8]
  colistin MIC, colistin alone: 512 µg/mL
[9]
  survival of inoculated worms after 4 days, monotherapy: 7%
[10]
  colistin MIC, colistin alone: 1024 µg/mL
[11]
  colistin MIC, colistin alone: 16 µg/mL

## CCCCc1ccc(C(=O)NCCc2c[nH]c3ccccc23)cc1 [Compound 1a]
[1]; adjuvant at 50 μM, parent E. coli strain
  fold reduction of colistin MIC: 16 fold
[12]
  fold reduction in the colistin MIC: 32 fold
[13]
  fold reduction in the colistin MIC: two-fold
